Data published in article PMC6001375, “CLERK is a novel receptor kinase required for sensing of root-active CLE peptides in Arabidopsis” (Development (Cambridge, England), 2018).
Entries after “also recorded” stand apart in the source; their conditions may differ.

Legend:
Arabidopsis root growth = assay: Root growth response (CLE resistance/sensitivity) of wild type and mutant seedlings; format: in vivo, Arabidopsis thaliana; conditions: for Root growth response of clerk mutants: clerk mutants vs Col-0 (and bam3 for CLE45), n=13-25 (Fig. 2B), n=16-19 (Fig. 2A)
Excerpt: Arabidopsis thaliana Columbia-0 (Col-0) was used as the wild type for phenotypic analyses and is the background of all mutants investigated: ops-2 (SALK_139316); brx-2 ([Rodrigues et al., 2009]); bam3-2 (SALK_044433) ([DeYoung et al., 2006]); clerk-3 (SALK_066568); ops^E319K ([Rodriguez-Villalon et al., 2014]); makr5 ([Kang and Hardtke, 2016]); nik1 (SALK_017538C); nik2 (SALK_044363C); and sark (SALK_111290), clv2/rlp10-1 (GK-686A09) and crn-10 ([Hazak et al., 2017]). Seeds were surface sterilized, germinated and grown vertically under continuous light at 22°C on 0.5× Murashige and Skoog media supplemented with 1% agar and with or without 0.3% sucrose.
CLE peptides were obtained from a commercial supplier (Genscript), synthesized at >80% purity, diluted in water and used at final concentration as indicated. For root length measurements, plates were scanned at 600 dpi resolution and seedling root length was determined using the Simple Neurite Tracer plug-in ([Longair et al., 2011]) for Fiji software ([Schindelin et al., 2012]).
M2 mutagenized seeds ([Kalmbach et al., 2017]) were screened in tissue culture on media complemented with 10 nM CLE26 peptide. Seedlings with CLE26-resistant root growth were transferred to soil and the phenotype was confirmed in the M3 generation before backcrossing to Col-0 wild type. The causative mutation for CLE26 resistance was then determined by whole-genome sequencing of bulked segregants as described previously ([Kang and Hardtke, 2016]).

[1] = tested on: VISUAL-cultured wild-type cotyledons (sieve element-specific genes); assay: RNAseq transcriptomic response in the VISUAL trans-differentiation assay; format: cell-based, Arabidopsis thaliana; conditions: for Number of responsive genes / Overlap of CLE26- and CLE45-responsive genes: 100 nM peptide, 2 h, q value<0.01
Excerpt: In an attempt to isolate novel components of CLE peptide signaling in A. thaliana root protophloem development, we embarked on a combinatorial approach of transcriptomic analysis and forward genetics. Experimental investigation of developing protophloem sieve elements is inherently difficult, because they represent only 40-50 cells inside the vascular cylinder of the root meristem, and some of our genes of interest are expressed only in a subset of these. Protophloem-specific transcriptomic responses are thus strongly diluted when root tips are assayed, and attempts to identify, e.g. protophloem-specific CLE45-responsive genes have so far been unsuccessful ([Depuydt et al., 2013]). However, in a novel trans-differentiation assay [vascular cell induction culture system using Arabidopsis leaves (VISUAL)] ([Kondo et al., 2016]), in which cotyledon or leaf mesophyll cells are re-programmed to differentiate into a ∼50:50 mix of xylem vessels and sieve elements, sieve element-specific genes can be monitored in unprecedented abundance. Although these trans-differentiated sieve elements are not root protophloem, they do represent a native cell type in which sieve element regulators can be investigated successfully ([Breda et al., 2017]; [Kondo et al., 2016]). Moreover, a transcriptomic time series identified BAM3 as a central node in the early module of the trans-differentiation process ([Kondo et al., 2016]). Thus, we concluded that VISUAL could be employed to identify CLE26- and CLE45-responsive sieve element-specific genes. To achieve this, we VISUAL-cultured wild-type cotyledons and monitored BAM3 expression in a parallel cultured transgenic line that carried a BAM3::GUS reporter gene. Strong comprehensive BAM3 expression was observed after 48 h. At this time point, the wild-type sample was split in replicates and treated with control, 100 nM CLE26 or 100 nM CLE45 for 2 h. Total RNA was isolated immediately after from these samples, and cDNA was prepared for high-throughput sequencing.
Vascular tissue trans-differentiation was induced in cotyledons over 2 days as described previously ([Kondo et al., 2016]). Samples were then treated with 100 nM of CLE26 or CLE45 peptide for 2 h. Total RNA of two biological replicates was then extracted from 100 mg of fresh material, using RNeasy Plant mini kits (Qiagen). Truseq Stranded mRNA kits (Illumina) were used to prepare cDNA libraries, which were sequenced on an Illumina Hiseq 2500 instrument. Read counts and differential expression were determined with Kallisto ([Bray et al., 2016]) and Sleuth ([Pimentel et al., 2017]) software, using the TAIR10 reference transcriptome. The raw data have been deposited in the NCBI Sequence Read Archive (www.ncbi.nlm.nih.gov/sra/) under accession SRP126390.

Row | Sequence | Root growth response of clerk mutants (Arabidopsis root growth) | Number of responsive genes [1] | Overlap of CLE26- and CLE45-responsive genes [1] | Root growth, 10 confirmed CLE26-resistant mutants (Arabidopsis root growth; 100 nM CLE26, vs Col-0 wild type, ANOVA, P<0.001, n=8-21) | Sensitivity of clerk plants carrying CLERK::CLERK-GFP (Arabidopsis root growth; Fig. 1E) | Root growth response, clerk T-DNA insertion mutant (SALK_066568) (Arabidopsis root growth; Fig. 1E, n=28-47) | Response of brx crn double mutants (Arabidopsis root growth; Fig. S4) | Requirement of CLERK for sensing in the root (Arabidopsis root growth; clerk mutants) | Response of clerk brx and clerk ops double mutants (Arabidopsis root growth; n=2-25) | Response of combinations of clerk with bam3, makr5 or ops^E319K (Arabidopsis root growth; n=2-25) | CLE sensitivity of clerk mutants with transgenic CLERK wild-type copy (Arabidopsis root growth; original and T-DNA clerk mutants, Fig. 1E, n=28-47) | Sensing with SARK or NIK1 expressed under the CLERK promoter (Arabidopsis root growth; several independent transgenic lines, n=21-43) | Regulation of SARK and NIK2 ([1]; 100 nM CLE26, 2 h) | Regulation of CLERK (At2g23950) ([1]; 100 nM CLE26, 2 h, top CLE26-responsive gene)
1 | RRVRRGSDPIHN [CLE45] | resistant | 97 genes | 36 genes |  |  |  |  |  |  |  |  |  |  | 
2 | RKVPRGPDPIHN [CLE26] | resistant | 167 genes | 36 genes | substantially resistant; also recorded: statistically significantly different when compared with Col-0 wild type | full sensitivity | strong CLE26 resistance | still CLE26 sensitive | CLERK is required for CLE26 sensing in the root | both clerk brx and clerk ops were CLE26 sensitive | additive CLE26 resistance | could be recovered | both SARK and NIK1 could replace the CLERK protein to sense CLE26 | downregulated | downregulated
